SMILES strings stand for the structures.

One test concerns the target T1, GST-tagged FAK (Homo sapiens, UniProt Q05397).
T1 construct: purchased Invitrogen PV3832
Description: Biochemical assay for FAK activity, Assay 1: phosphorylation of peptide substrate with radio-labeled ATP. Particulars: 5 μM ATP, 30 min pre-incubation, read-out: Assay 1 FAK TRF PXC50 (converted).

Test [1] has as its target T2, Full length Human FAK (Flag-His-TEV-FAK1) (Homo sapiens, UniProt Q05397).
T2 construct: Full length Human FAK was expressed using baculovirus in Sf9 cells; made in house; host or cells: baculovirus in Sf9 cells
Description: Biochemical assay for FAK activity, Assay 2: LANCE Ultra ULight peptide phosphorylation, 665 nm/615 nm ratio. Particulars: Flag-His-TEV-FAK1, 10 μM ATP, 30 min pre-incubation; read-out: Assay 2 FAK H 31284A TRF PXC50 (converted).

T2 sequence (Q05397 whole entry): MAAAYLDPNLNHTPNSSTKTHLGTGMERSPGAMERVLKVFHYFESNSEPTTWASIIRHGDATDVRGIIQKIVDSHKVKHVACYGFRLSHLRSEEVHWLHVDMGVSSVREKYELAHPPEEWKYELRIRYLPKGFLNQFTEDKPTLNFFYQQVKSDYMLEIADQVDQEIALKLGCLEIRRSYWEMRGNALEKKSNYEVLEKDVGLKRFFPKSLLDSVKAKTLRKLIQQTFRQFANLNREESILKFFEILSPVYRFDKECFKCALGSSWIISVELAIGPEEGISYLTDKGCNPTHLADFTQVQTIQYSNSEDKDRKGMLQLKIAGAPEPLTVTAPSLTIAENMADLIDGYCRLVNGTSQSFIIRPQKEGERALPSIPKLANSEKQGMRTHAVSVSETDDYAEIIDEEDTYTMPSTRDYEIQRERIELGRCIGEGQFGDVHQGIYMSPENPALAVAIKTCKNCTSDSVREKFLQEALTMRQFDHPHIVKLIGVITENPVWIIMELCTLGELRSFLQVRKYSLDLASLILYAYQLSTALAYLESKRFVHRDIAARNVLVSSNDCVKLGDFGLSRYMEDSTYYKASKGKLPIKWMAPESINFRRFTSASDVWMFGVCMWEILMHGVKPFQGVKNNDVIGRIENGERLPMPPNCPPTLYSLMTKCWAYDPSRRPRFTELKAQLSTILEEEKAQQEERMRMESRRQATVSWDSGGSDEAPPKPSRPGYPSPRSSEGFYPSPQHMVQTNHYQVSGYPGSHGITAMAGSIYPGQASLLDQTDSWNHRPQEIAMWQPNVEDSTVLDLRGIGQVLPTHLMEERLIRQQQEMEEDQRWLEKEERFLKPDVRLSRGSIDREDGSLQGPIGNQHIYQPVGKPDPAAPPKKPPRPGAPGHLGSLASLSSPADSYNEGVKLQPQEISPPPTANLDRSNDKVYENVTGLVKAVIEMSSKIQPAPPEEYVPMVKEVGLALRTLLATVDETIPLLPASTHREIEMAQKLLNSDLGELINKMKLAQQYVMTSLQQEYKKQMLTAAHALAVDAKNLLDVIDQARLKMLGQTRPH
T1 sequence (Q05397 whole entry): as above

With `CNC(=O)c1ccccc1Nc1cc(Nc2cc(C)nn2C(C)C)ncc1C(F)(F)F` [Example 30, N-Methyl-2-{[2-[(3-methyl-1-(1-methylethyl)-1H-pyrazol-5-yl]amino}-5-(trifluoromethyl)-4-pyridinyl]amino}benzamide], the IC50 at GST-tagged FAK is 0.398 nM; in test [1], 1.58 nM.

Take `CCn1nc(C(=O)NCCN(C)C)cc1Nc1cc(Nc2ccccc2C(=O)NC)c(Cl)cn1` [Example 24, 5-{[5-Chloro-4-({2-[(methylamino)carbonyl]phenyl}amino)-2-pyridinyl]amino}-N-[2-(dimethylamino)ethyl]-1-ethyl-1H-pyrazole-3-carboxamide]: the IC50 at GST-tagged FAK is 6.31 nM; in test [1], 63.1 nM.

For `CNC(=O)c1cc(F)ccc1Nc1cc(Nc2cc(C)nn2C)ncc1Cl` [Example 7, 2-({5-Chloro-2-[(1,3-dimethyl-1H-pyrazol-5-yl)amino]-4-pyridinyl}amino)-5-fluoro-N-methylbenzamide], the IC50 was 0.794 nM at GST-tagged FAK and 10 nM in test [1].

For the origin of these results see US20140155410A1 (GlaxoSmithKline LLC, priority 2008, published 2014).
